Entries after “also recorded” stand apart in the source; their conditions may differ. [5mC] = 5-methylcytosine
Columns and labels:
[1] = tested on: MDA-MB-231 human breast cancer cells; test: MDA-MB-231 breast tumour xenograft in CD-1 nude mice, combination with taxol or doxorubicin (1.7); assay type: in vivo, human cells in mice; settings: MDA-MB-231, CD-1 nude mice; oligonucleotides 10 mg/kg i.v. every other day; taxol 10 mg/kg, doxorubicin 5 mg/kg i.v. weekly
Experimental: After 52 days the mice were sacrificed and the tumours weighed. […] Mitoxantrone was administered intravenously once at the beginning of the treatments at a dose of 2 mg/kg (FIG. 4A) or once a week for four weeks at a reduced dose of 0.8 mg/kg (FIG. 4B). All treatments were stopped at day 50 (FIG. 4A) or 48 (FIG. 4B), respectively. […] Mitoxantrone was administered intravenously once at the beginning of the treatments at a dose of 2 mg/kg (FIG. 5A) or once a week for four weeks at a reduced dose of 0.8 mg/kg (FIG. 5B). All treatments were stopped at day 42 (FIG. 5A) or 38 (FIG. 5B), respectively. […] A2058 is a metastatic melanoma cell line. […] All treatments were stopped at day 24. […] Taxol was administered intravenously once a week at a dose of 10 mg/kg for three (FIG. 7A) or four weeks (FIG. 7C). Doxorubicin was administered intravenously once a week at a dose of 5 mg/kg for first three weeks (FIG. 7A) or for two weeks (FIG. 7C). All treatments were stopped at day 33 (FIG. 7A) or at day 26 (FIG. 7C), respectively. […] In FIG. 7C, antitumour activities were estimated by the inhibition of tumour volume, which was measured with calipers. Each point represents mean tumour volume calculated from 10 animals per experimental group. […] Taxol was administered intravenously once a week for first three weeks and intraperitoneally once a week for next two weeks at a dose of 10 mg/kg. Cisplatin was administered intravenously once a week for first three weeks and intraperitoneally once a week for next two weeks at a dose of 4 mg/kg. All treatments were stopped at day 40. Antitumour activities were estimated by the inhibition of tumour volume, which was measured with caliper. Each point represents mean tumour volume calculated from 9 animals per experimental group.

[2] = tested on: Hep G2 human liver cancer cells; test: HepG2 liver tumour growth in CD-1 nude mice (3.7); assay type: in vivo, human cells in mice; settings: Hep G2, CD-1 nude mice; 2.5 mg/kg i.v. every day, 30 days
Experimental: Treatments lasted for 14 days thereafter. Antitumour activities were estimated by the inhibition of tumour volume, which was measured with a caliper on four different occasions over the treatment period. Each point represents mean tumour volume calculated from 5 animals per experimental group. […] Control animals (control) received saline alone for the same period. At the end of the treatments, the animals were sacrificed, tumours were excised and their weights were measured. Each bar represents mean tumour weight calculated from 6 animals per experimental group. […] Treatments lasted for 24 days thereafter. Antitumour activities were estimated by the inhibition of tumour volume, which was measured with a caliper at two-day intervals over the treatment period. Each point represents mean tumour volume calculated from 4 animals per experimental group. […] Treatments lasted for 24 days thereafter. Antitumour activities were estimated by the inhibition of tumour volume, which was measured with a caliper at two-day intervals over the treatment period. Each point represents mean tumour volume calculated from 4 animals per experimental group. […] Treatments lasted for 22 days thereafter. […] Each point represents mean tumour volume calculated from 5 animals per experimental group. […] Treatments lasted for 14 days thereafter. Antitumour activities were estimated by the inhibition of tumour volume, which was measured with a caliper on four different occasions over 16-day period. Each point represents mean tumour volume calculated from 5 animals per experimental group. […] Two different batches of SEQ ID NO:1, synthesized at different times (designated as batch 1 and batch 2), were tested to detect possible batch-specific effects. […] Treatments lasted for 34 days thereafter. Antitumour activities were estimated by the inhibition of tumour volume, which was measured with a caliper at two-day intervals over the treatment period. Each point represents mean tumour volume calculated from 5 animals per experimental group. […] Treatments lasted for 30 days thereafter. Antitumour activities were estimated by the inhibition of tumour volume, which was measured with a caliper at various time intervals over the span of 30 days. Each point represents mean tumour volume calculated from 6 animals per experimental group. […] All treatments were stopped at day 36. Antitumour activities were estimated by the inhibition of tumour volume, which was measured with a caliper. Each point represents mean tumour volume calculated from 5 animals per experimental group. […] All treatments were stopped at day 52. […] Antitumour activities were estimated by the inhibition of tumour volume, which was measured with a caliper.

[3] = tested on: human Burkitt's lymphoma (Raji) cells; test: Survival of SCID mice bearing human Burkitt's lymphoma (Raji); assay type: in vivo, human cells in mice; settings: 10 mg/kg i.v. every second day
Experimental: Mice with established human Burkitt's lymphoma tumours were treated every second day with either saline or SEQ ID NO:1 for 44 days as described above. The control group mice all died from disease progression by day 20. At day 44, the SEQ ID NO:1 mice continued treatment on a weekly basis until stopping the treatment at day 73.
As an additional test of efficacy SEQ ID NO:1 was administered to SCID mice bearing active Burkitt's lymphoma (FIG. 30). Viable human Burkitt's lymphoma (Raji) cells (5×10^6) collected from subconfluent logarithmically growing cultures were injected i.v. into each animal and disease was allowed to establish for 2 days. SEQ ID NO:1, SEQ ID NO:3 and SEQ ID NO:2, in normal saline were administered by tail vein injection every second day at a dose of 10 mg/kg. At day 40 the treatment schedule was reduced to 10 mg/kg every 3 days. Control animals received saline alone, without oligonucleotide. Survival is presented as a percentage of the starting number of mice over time.

[4] = tested on: C8161 human metastatic melanoma cells; test: Experimental metastasis assay, C8161 cells, treatment post tumour cell injection; assay type: in vivo, human cells in mice; settings: C8161 cells i.v. into SCID mice; treatment initiated after 2 days; lungs 5-7 weeks later
Experimental: C8161 human melanoma cells were seeded into 100 mm tissue culture dishes at a density of 2×10^6 and incubated overnight at 37° C. in α-MEM medium supplemented with 10% FBS. The cells were trypsinized, collected by centrifugation and aliquots were removed from the suspension to determine the cell viability using trypan blue exclusion test. […] Treatment was initiated after 2 days. Estimates of the number of lung nodules were made 5-7 weeks later, after excised lungs from individual mice were stained with picric acid dye solution (75% picric acid, 20% formaldehyde, 5% glacial acetic acid).
Murine R3 fibrosarcoma and human C8161 melanoma cells injected into the tail vein of mice form observable lung nodules 2 weeks post-injection. […] To more accurately reflect the clinical situation, mice were treated with SEQ ID NO:1 post tumour cell injection. C8161 human metastatic melanoma cells were seeded into 100 mm tissue culture dishes at a density of 2×10^6 and incubated overnight at 37° C. in α-MEM medium supplemented with 10% FBS. The cells were trypsinized, collected by centrifugation and aliquots were removed from the suspension to determine the cell viability using trypan blue exclusion test. Approximately 1×10^5 cells suspended in 0.1 ml of PBS were injected into the tail veins of 6-8 week old female SCID mice. Treatment was initiated after 2 days. Estimates of the number of lung nodules were made 5-7 weeks later, after excised lungs from individual mice were stained with picric acid dye solution (75% picric acid, 20% formaldehyde, 5% glacial acetic acid). The results are shown in FIG. 31, bars represent the mean number of nodules per mouse with standard error.

[5] = tested on: HT-29 human colon cancer cells; settings: SEQ ID NO:1 6 mg/kg i.v. every day, mitomycin C 3.5 mg/kg/week i.v.
Experimental: • 1.1 HT-29 human colon cancer cells (3×10^6 cells in 100 μl of PBS) were subcutaneously injected into the right flank of 6-7 weeks old female CD-1 nude mice. After the size of tumour reached an approximate volume of 50 mm^3, 4 days post tumour cell injection, mitomycin C was administered by bolus infusion into the tail vein at days 4, 11 and 18 with a dose of 3.5 mg/kg/week. […] SEQ ID NO:1 was administered by bolus infusion into the tail vein every day at 6 mg/kg and mitomycin C was administered intravenously at days 4, 11 and 18 with a dose of 3.5 mg/kg/week, one hour after the treatments with SEQ ID NO:1. Control animals received saline alone for the same period as SEQ ID NO:1. All treatments were stopped at day 22. A day after the last treatment, tumours were excised from the animals and their weights were measured.

HT29 tumour xenografts = HT29 tumour xenografts in CD-1 nude mice, methylated oligonucleotides; assay type: in vivo, human cells in mice; settings: compared with SEQ ID NO:1

Question: “5′-ACGCACTCAGCTAGTGACAC-3′ (listed as DNA, chemistry not given here) [SEQ ID NO:3, reference compound]” was tested. Which “Antitumour effect (tumour weight / volume, FIG. 7)” value [1] did it give?
Answer: The value was “no significant anti-tumour activity as a monotherapy; also recorded: does not cooperate with doxorubicin”.

Question: And the “Inhibitory effect on tumour growth (tumour volume, FIG. 20)” value [2]?
Answer: Its value is “did not differ from that in saline treated mice”.

Question: And the Survival of mice ([3]; SCID mice (Example 7, FIG. 30), from day 40 every 3 days)?
Answer: The Survival of mice was “neither SEQ ID NO:3 nor SEQ ID NO:2 control ODNs prolonged survival”.

Question: And the Survival of mice ([3]; SCID mice, stopped at day 42, sacrificed day 73, untreated all died within 23 days)?
Answer: Its Survival of mice is “no observed efficacy”.

Question: And the “Lung nodule formation / anti-metastatic activity (FIG. 31)” value [4]?
Answer: Its value is “no anti-metastatic activity”.

Question: How did the “Tumour weight as % of saline control” value ([5]; HT-29 (colon), SCID mouse as printed) turn out when `CO[C@@]12[C@H](COC(N)=O)C3=C(C(=O)C(C)=C(N)C3=O)N1C[C@@H]1N[C@@H]12` [Mitomycin C, mitomycin C] was run?
Answer: Its value is 15%.

Question: What about the “Antitumour effect (tumour weight, FIG. 1)” value ([5]; HT-29, CD-1 nude mice) of the same compound?
Answer: Its value is “significant delay of tumour growth compared to saline control”.

Question: “SEQ ID NO:4: SEQ ID NO:1 with methylation at the CpG (C9) (GGCTAAATCGCTCCACCAAG; [5mC] at 9, all phosphorothioate, sugars by position and methylation of C not given here)” was tested. Which “Anti-tumour activity (FIG. 33)” value (HT29 tumour xenografts) did it give?
Answer: Its value is “does not abrogate the anti-tumour activity of SEQ ID NO:1; also recorded: measurable, but not significant, effect on the anti-tumour activity”.

Question: How did the “Anti-tumour activity (FIG. 33)” value (HT29 tumour xenografts) turn out when “SEQ ID NO:5: control oligonucleotide (met-11C) (GGCTAAATCGCTCCACCAAG; listed as DNA, chemistry not fully specified) [reference compound]” was run?
Answer: The value was “measurable, but not significant, effect on the anti-tumour activity”.

Source: patent US7968526B2, “Antisense oligonucleotides directed to ribonucleotide reductase R2 and uses thereof in the treatment of cancer” (Lorus Therapeutics Inc., priority 2003, dated 2011)
